Measured values taken from article PMC5974720, “Urate transport function of rat sodium‐dependent nucleobase transporter 1” (Physiological Reports, 2018).

How the values were obtained:
[1] = biological target: T1, rat sodium-dependent nucleobase transporter 1 (rSNBT1) (Rattus norvegicus, UniProt D2KX48); test: inhibition of rSNBT1-specific […]urate uptake in stably transfected MDCKII cells; assay type: cell-based
T1 construct: gene Slc23a4
T1 sequence (D2KX48 1-614): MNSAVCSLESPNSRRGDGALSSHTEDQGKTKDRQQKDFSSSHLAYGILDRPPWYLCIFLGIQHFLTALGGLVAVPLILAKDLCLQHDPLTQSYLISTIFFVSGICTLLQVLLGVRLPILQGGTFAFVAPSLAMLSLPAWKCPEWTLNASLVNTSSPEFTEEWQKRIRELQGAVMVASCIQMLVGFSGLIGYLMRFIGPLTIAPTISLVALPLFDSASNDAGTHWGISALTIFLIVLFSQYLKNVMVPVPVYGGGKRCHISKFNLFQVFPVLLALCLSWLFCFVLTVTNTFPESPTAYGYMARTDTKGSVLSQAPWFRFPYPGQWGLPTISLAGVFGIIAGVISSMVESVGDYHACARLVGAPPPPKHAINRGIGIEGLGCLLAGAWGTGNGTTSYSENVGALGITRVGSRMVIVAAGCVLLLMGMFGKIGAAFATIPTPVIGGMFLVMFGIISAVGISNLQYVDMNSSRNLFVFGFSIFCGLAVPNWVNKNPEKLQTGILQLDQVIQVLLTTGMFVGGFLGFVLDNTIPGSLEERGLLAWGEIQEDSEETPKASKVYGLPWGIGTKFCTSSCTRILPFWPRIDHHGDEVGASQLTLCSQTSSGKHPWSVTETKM

[2] = biological target: T2, rat breast cancer resistance protein (rBCRP) (Rattus norvegicus, UniProt Q80W57); test: inhibition of rBCRP-mediated urate efflux in HEK293 cells co-expressing rSNBT1 ([…]); assay type: cell-based
T2 construct: gene Abcg2
T2 sequence (Q80W57 1-657): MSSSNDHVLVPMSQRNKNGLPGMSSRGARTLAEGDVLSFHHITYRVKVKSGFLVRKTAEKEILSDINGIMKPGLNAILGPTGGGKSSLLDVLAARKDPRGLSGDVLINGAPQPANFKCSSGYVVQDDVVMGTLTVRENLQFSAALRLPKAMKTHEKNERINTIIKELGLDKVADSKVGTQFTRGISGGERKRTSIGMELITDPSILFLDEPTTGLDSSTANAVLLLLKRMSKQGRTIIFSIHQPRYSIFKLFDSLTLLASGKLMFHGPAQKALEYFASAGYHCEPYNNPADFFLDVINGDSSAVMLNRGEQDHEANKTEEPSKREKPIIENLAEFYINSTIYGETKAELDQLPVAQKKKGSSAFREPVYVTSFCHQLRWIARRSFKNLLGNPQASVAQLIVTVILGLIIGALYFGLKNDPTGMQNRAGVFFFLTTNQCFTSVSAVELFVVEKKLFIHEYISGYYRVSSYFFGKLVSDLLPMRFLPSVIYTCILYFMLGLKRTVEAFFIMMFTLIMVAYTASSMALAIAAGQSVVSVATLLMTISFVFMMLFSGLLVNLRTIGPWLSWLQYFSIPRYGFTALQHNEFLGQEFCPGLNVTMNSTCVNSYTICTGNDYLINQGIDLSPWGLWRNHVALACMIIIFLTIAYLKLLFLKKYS

[3] = biological target: T1, rat sodium-dependent nucleobase transporter 1 (rSNBT1); test: inhibition of rSNBT1-specific […]urate uptake in stably transfected MDCKII cells; [3H]uracil uptake in transfected HEK293 cells; assay type: cell-based
[4] = biological target: T3, human organic anion transporter 1 (OAT1) (Homo sapiens, UniProt Q4U2R8); test: […]urate uptake in transiently transfected HEK293 cells; assay type: cell-based
T3 construct: gene SLC22A6
T3 sequence (Q4U2R8 1-563): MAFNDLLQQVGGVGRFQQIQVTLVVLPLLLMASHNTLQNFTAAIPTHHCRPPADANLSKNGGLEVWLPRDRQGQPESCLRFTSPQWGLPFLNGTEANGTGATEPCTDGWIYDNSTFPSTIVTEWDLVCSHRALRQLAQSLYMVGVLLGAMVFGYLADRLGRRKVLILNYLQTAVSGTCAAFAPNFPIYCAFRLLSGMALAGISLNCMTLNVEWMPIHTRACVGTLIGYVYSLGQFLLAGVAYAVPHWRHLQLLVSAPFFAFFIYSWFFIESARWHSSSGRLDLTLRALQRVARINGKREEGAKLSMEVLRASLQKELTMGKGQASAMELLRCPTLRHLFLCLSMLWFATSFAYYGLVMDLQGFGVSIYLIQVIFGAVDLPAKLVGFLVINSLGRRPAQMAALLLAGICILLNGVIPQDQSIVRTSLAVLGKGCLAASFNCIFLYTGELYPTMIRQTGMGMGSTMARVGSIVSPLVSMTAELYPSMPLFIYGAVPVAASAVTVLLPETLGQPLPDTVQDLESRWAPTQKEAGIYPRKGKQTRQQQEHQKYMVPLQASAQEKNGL

human OAT3 = biological target: T4, human OAT3 (Homo sapiens, UniProt Q8TCC7); test: as above
T4 construct: gene SLC22A8
T4 sequence (Q8TCC7 1-542): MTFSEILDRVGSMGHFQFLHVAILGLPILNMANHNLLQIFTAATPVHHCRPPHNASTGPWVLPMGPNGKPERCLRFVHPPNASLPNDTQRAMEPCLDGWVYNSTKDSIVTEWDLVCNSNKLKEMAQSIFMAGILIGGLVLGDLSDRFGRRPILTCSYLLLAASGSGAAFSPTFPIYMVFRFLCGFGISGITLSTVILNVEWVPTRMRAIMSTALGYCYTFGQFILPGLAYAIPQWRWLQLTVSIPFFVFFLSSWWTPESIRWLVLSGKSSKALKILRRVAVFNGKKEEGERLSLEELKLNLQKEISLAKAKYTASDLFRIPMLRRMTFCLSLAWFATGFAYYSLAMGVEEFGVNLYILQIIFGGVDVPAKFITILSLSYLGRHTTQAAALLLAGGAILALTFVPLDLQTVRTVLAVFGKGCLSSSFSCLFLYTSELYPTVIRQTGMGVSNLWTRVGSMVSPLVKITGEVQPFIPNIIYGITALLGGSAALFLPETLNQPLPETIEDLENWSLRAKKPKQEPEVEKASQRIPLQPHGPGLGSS

[5] = biological target: T5, human URAT1 (urate transporter 1) (Homo sapiens, UniProt Q96S37)
T5 construct: gene SLC22A12
T5 sequence (Q96S37 1-553): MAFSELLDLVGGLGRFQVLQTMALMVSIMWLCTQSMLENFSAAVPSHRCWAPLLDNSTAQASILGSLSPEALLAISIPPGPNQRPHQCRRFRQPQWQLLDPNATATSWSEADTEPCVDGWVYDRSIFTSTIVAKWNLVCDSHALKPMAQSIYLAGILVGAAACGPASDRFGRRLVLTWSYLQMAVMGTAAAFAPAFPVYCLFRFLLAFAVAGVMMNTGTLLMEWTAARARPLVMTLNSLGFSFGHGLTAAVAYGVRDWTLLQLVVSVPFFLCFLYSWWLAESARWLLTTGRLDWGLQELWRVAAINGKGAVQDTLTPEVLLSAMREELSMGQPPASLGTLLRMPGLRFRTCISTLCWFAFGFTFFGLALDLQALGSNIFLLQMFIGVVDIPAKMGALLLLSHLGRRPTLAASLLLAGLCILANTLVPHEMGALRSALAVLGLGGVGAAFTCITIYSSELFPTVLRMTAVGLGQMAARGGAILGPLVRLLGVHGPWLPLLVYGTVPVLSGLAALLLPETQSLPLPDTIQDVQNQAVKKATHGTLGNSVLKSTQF

[6] = substrate: O=c1[nH]c(=O)c2[nH]c(=O)[nH]c2[nH]1; test: cells, lysate or membranes; assay type: cell-based, Rattus norvegicus; conditions: Na+ likely to share the same substrate recognition site with uracil

**Q.** With Nc1nc2nc[nH]c2c(=O)[nH]1 [Guanine] as the molecule, how does the IC50 [1] read?
**A.** The IC50 was 2.7 ± 0.8 µM.

**Q.** For O=c1[nH]cnc2nc[nH]c12 [Hypoxanthine], which IC50 ([1]; read-out: IC50) is on record?
**A.** Its IC50 is 10.1 ± 2.4 µM.

**Q.** Which “inhibition of rBCRP-mediated urate efflux in HEK293 cells co-expressing rSNBT1” value [2] does the source give for COc1ccc2c3c([nH]c2c1)[C@H](CC(C)C)N1C(=O)[C@H](CCC(=O)OC(C)(C)C)NC(=O)[C@@H]1C3 [Ko143] here?
**A.** The value was “Ko143 was effective in inhibiting rBCRP‐mediated urate efflux almost completely at that concentration”.

**Q.** How did the IC50 ([1]; read-out: IC50) turn out when Cc1c[nH]c(=O)[nH]c1=O [Thymine] was run?
**A.** The IC50 was 8.8 ± 2.5 µM.

**Q.** With O=c1cc[nH]c(=O)[nH]1 [Uracil] as the molecule, how does the IC50 [3] read?
**A.** Its IC50 is 28.4 ± 8.5 µM.

**Q.** For O=c1[nH]c(=O)c2[nH]c(=O)[nH]c2[nH]1 [urate], which “[14C]urate uptake in transiently transfected HEK293 cells” value (from here on “[14C]urate uptake”) [4] is on record?
**A.** The value was “When transiently introduced into HEK293 cells, all those transporters raised urate uptake, but to lesser extents than rSNBT1”.

**Q.** And the “[14C]urate uptake” value (human OAT3)?
**A.** Its value is “When transiently introduced into HEK293 cells, all those transporters raised urate uptake, but to lesser extents than rSNBT1”.

**Q.** And the “[14C]urate uptake” value [5]?
**A.** Its value is “When transiently introduced into HEK293 cells, all those transporters raised urate uptake, but to lesser extents than rSNBT1”.

B1: rat sodium-dependent nucleobase transporter 1 (rSNBT1) (Rattus norvegicus) (protein)
chain: T1 sequence (D2KX48 1-614)
**Q.** Which Km [6] does the source give for B1 here?
**A.** The Km was 433 ± 113 µM.
